The text below walks through data of patent US7687620B2, “[1,4]diazepino[6,7,1-IJ]quinoline derivatives as antipsychotic and antiobesity agents” (Wyeth LLC, priority 2002, dated 2010).

The target of experiment [1] is T1, human 5-hydroxytryptamine2C (h5HT2C) receptor (Homo sapiens, UniProt P28335).
T1 construct: expressed in transfected cells; host or cells: CHO (Chinese Hamster Ovary) cells; membrane preparation
T1 sequence (P28335 33-458): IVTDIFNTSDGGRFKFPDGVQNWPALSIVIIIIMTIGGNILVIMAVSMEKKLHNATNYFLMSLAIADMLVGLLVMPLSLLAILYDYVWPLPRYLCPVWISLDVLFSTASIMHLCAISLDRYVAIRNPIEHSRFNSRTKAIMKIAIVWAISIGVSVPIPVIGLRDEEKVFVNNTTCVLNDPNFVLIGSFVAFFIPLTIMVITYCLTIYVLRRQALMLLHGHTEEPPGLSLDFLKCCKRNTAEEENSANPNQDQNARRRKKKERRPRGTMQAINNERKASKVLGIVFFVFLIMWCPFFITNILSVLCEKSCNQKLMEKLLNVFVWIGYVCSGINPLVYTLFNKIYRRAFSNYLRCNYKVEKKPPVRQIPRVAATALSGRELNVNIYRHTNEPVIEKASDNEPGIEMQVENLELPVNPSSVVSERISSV
In words: 5HT2C receptor binding ([125I]DOI displacement, CHO cell membranes).

The target in the next experiment is T2, human 5-HT2C receptor (Homo sapiens, UniProt P28335).
T2 sequence (P28335 33-458): T1 sequence (P28335 33-458)
In words: Calcium mobilization in response to 5-HT2C receptor agonists (FLIPR, CHO cells). In kind it is cell-based. As to conditions: for Emax: CHO, read-out: 5-HT2C Function Emax (%) (5-HT, 100%); for EC50: calcium mobilization, CHO cells stably expressing human 5-HT2C, read-out: 5-HT2C Function EC50. A general note: Calcium flux is commonly read through the fluorescence of an indicator in the cells.

The structures appear in SMILES notation. Where a name gives a salt, the structure may show the parent alone. Read-outs that look alike come from different tables or passages of the source.

Consider `c1cc2c3c(c1)C1CCCC1CN3CCNC2` (single isomer, unassigned; (-)) [Example 4, (−)-4,5,6,7,9,9a10,11,12,12a-decahydrocyclopenta[c][1,4]diazepino[6,7,1-ij]quinoline], for which the Ki (commonly a measure of affinity in units of concentration, obtained from inhibition or displacement) in experiment [1] was determined as 3 nM. Moreover, at human 5-HT2C receptor, the Emax (commonly the size of the effect at its maximum, as opposed to the concentration needed) was 100% and the EC50 (commonly the concentration that produces a half-maximal response) came out at 8 nM.
As for `Fc1ccc2c3c1C1CCCCCC1CN3CCNC2` (stereo not shown) [Example 28, 1-fluoro-4,5,6,7,9,9a,10,11,12,13,14,14a-dodecahydrocyclohepta[c][1,4]diazepino[6,7,1-ij]quinoline hydrochloride], the inhibition constant Ki in experiment [1] is 169 nM.
In the case of `CSc1ccc2c(c1)C(N1CCN(C)CC1)Cc1ccccc1S2` (stereo not shown) [Methiothepin, reference compound], the Ki in experiment [1] ([125I]DOI binding, CHO membranes expressing h5HT2C, 95% confidence interval in brackets, read-out: Ki (95% confidence interval), reference compounds) was 4.6 nM.
In turn, `c1cc2c3c(c1)C1CCCCC1CN3CCNC2` (stereo not shown) [Example 6, 4,5,6,7,9a,10,11,12,13,13a-decahydro-9H-[1,4]diazepino[6,7,1-de]phenanthridine hydrochloride] showed a Ki in experiment [1] of 24 nM. Besides, on human 5-HT2C receptor, the Emax is 60% and the EC50 was 65 nM.
For the compound `c1cc2c3c(c1)[C@H]1CCCCC[C@H]1CN3CCNC2` [Example 10, (9aR,14aS)-4,5,6,7,9,9a10,11,12,13,14,14a-dodecahydrocyclohepta[c][1,4]diazepino[6,7,1-ij]quinoline hydrochloride], in experiment [1], the Ki turned out to be 56 nM.
The same measure, in the same setting: then `COc1cc2c3c(c1F)C1CCCCCC1CN3CCNC2` (stereo not shown) [Example 34, 1-fluoro-2-methoxy-4,5,6,7,9,9a,10,11,12,13,14,14a-dodecahydrocyclohepta[c][1,4]diazepino[6,7,1-ij]quinoline hydrochloride], with 249 nM; and `COc1cc2c3c(c1)C1CCCC1CN3CCNC2` (stereo not shown) [Example 24, 2-methoxy-4,5,6,7,9,9a,10,11,12,12a-decahydrocyclopenta[c][1,4]diazepino[6,7,1-ij]quinoline hydrochloride], with 199 nM; and `FC(F)(F)c1ccc2c3c1C1CCCC1CN3CCNC2` (stereo not shown) [Example 30, 1-(trifluoromethyl)-4,5,6,7,9,9a,10,11,12,12a-decahydrocyclopenta[c][1,4]diazepino[6,7,1-ij]quinoline hydrochloride], with 59 nM.
Same read-out and setting: to `c1cc2c3c(c1)[C@@H]1CCCCC[C@@H]1CN3CCNC2` [Example 12, (9aS,14aR)-4,5,6,7,9,9a,10,11,12,13,14,14a-dodecahydrocyclohepta[c][1,4]diazepino[6,7,1-ij]quinoline hydrochloride] belongs 117 nM; to `Brc1cc2c3c(c1)C1CCCCCC1CN3CCNC2` (stereo not shown) [Example 16, 2-bromo-4,5,6,7,9,9a,10,11,12,13,14,14a-dodecahydrocyclohepta[c][1,4]diazepino[6,7,1-ij]quinoline hydrochloride], 2300 nM.
`Fc1ccc2c3c1C1CCCC1CN3CCNC2` (stereo not shown) [Example 26, 1-fluoro-4,5,6,7,9,9a,10,11,12,12a-decahydrocyclopenta[c][1,4]diazepino[6,7,1-ij]quinoline hydrochloride] returned a Ki in experiment [1] of 20 nM.
As to `c1cc2c3c(c1)C1CCCCCC1CN3CCNC2` (stereo not shown) [Example 8, 4,5,6,7,9,9a,10,11,12,13,14,14a-dodecahydrocyclohepta[c][1,4]diazepino[6,7,1-ij]quinoline], affinity in experiment [1] was put at a Ki of 13 nM. Also, at human 5-HT2C receptor, the Emax came out at 70% and the concentration giving a half-maximal response (EC50) came to 261 nM.
As for `c1ccc(-c2cc3c4c(c2)C2CCCC2CN4CCNC3)cc1` (stereo not shown) [Example 22, 2-phenyl-4,5,6,7,9,9a,10,11,12,12a-decahydrocyclopenta[c][1,4]diazepino[6,7,1-ij]quinoline hydrochloride], in experiment [1], the Ki was determined as 88 nM.
Still for that read-out and setting: to `COc1cc2c3c(c1F)C1CCCC1CN3CCNC2` (stereo not shown) [Example 32, 1-fluoro-2-methoxy-4,5,6,7,9,9a,10,11,12,12a-decahydrocyclopenta[c][1,4]diazepino[6,7,1-ij]quinoline hydrochloride] belongs 223 nM; to `Clc1cc2c3c(c1)C1CCCCCC1CN3CCNC2` (stereo not shown) [Example 20, 2-chloro-4,5,6,7,9,9a,10,11,12,13,14,14a-dodecahydrocyclohepta[c][1,4]diazepino[6,7,1-ij]quinoline hydrochloride], 373 nM.
In the case of `COc1cc(CC(C)N)c(OC)cc1I` (stereo not shown) [[^125I]DOI, reference compound], the Kd – broadly, the free concentration of one partner at which half of the binding sites on the other are occupied at equilibrium, for simple one-to-one binding – in experiment [1] (read-out: dissociation constant, KD of [125I]DOI at the human serotonin 5HT2C receptor, saturation binding with increasing concentrations of [125I]DOI) was 0.4 nM.
